Experimental data published in patent US6372727B1, “Metalloporphyrin treatment of neurologic disease” (UAB Research Foundation, priority 1999, dated 2002).
Values joined by “and” are separate entries in the source; they are usually repeats but may differ in a detail not shown here. Equal entries are not always repeated.

Assays:
[1] = MP 5 μM, GSH 2 mM, 0.1 M potassium phosphate pH 7.4, 37° C.
Protocol: Aliquots (14 μl) were removed at 10 min intervals and added to 1.4 of 0.1 M potassium phosphate, pH 7.4 containing 0.2 mM dithionitrobenzoic acid (Ellman's Reagent) and 50 μM EDTA. GSH concentration was determined by the change in 430 nm absorbance. The extinction coefficient at 430 nm was determined to be 13,900 M^−1cm^−1 using a fresh GSH solution standardized by weight.
(§1) In order to test the hypothesis that Mn(II)- or Fe(II)-porphyrins would be capable of carrying out two-electron reductions of peroxynitrite and thereby decreasing rather than increasing its reactivity, attempts were made to pre-reduce these transition metal-containing MPs prior to addition of peroxynitrite.

[2] = Ascorbate oxidation by MPs monitored at 266 nm; format: biochemical; settings: MP 10 μM, 50 μM ascorbate, 0.1 M potassium phosphate pH 7.4, ± standard error, n=3
Protocol: as §1
Table V. Ascorbate oxidation by MPs. MPs (10 μM) were added to stirred cuvettes containing 0.1 M potassium phosphate, pH 7.4 and 50 μM ascorbate. Ascorbate oxidation was monitored at 266 nm (ηm=17,700 M^−1cm^−1). Oxidation rates (±standard errors) were determined by fitting the initial linear portion of each curve and averaging the rates (n=3).

[3] = Peroxynitrite-mediated nitration of GYA peptide; format: biochemical; settings: 2 mM GYA, 10 μM MP, pH 7.4
Protocol: Nitration efficiency, defined as the moles of nitrated GYA peptide formed per mole of peroxynitrite added, was determined at a fixed concentration of 10 μM MP or Cu,Zn SOD subunit, or 1 mM CO2 as described below. Increasing amounts of peroxynitrite were added in a sequential manner in order to determine whether nitration efficiency varied with concentration and to determine whether nitration catalysis was maintained with multiple additions (see INSET). Nitration efficiency was calculated for each peroxynitrite addition; the values shown are the average of all nine peroxynitrite additions. Absorbance changes were monitored simultaneously at 380, 430, and 460 nm.
(§2) For nitration of GYA peptide (see FIG. 6), reaction solutions contained 2 mM GYA and 10 μM of the indicated MP in 1.4 ml of 0.1 M potassium phosphate, pH 7.4 at 37° C. Comparisons with two previously characterized nitration catalysts, human Cu,Zn superoxide dismutase (hCu,Zn SOD) and carbon dioxide, were made using 10 μM of SOD subunit and 25 mM potassium bicarbonate, respectively, which was pH-adjusted to 7.4. This level of bicarbonate results in rapid saturation of the solution with carbon dioxide (˜1 mM). Solutions were placed into a rapidly stirred cuvette and nine bolus additions (50 μM×3, 100 μM×3, and 200 μM×3) of peroxynitrite were made sequentially while the absorbance was monitored. Increasing amounts of peroxynitrite were added in a sequential manner in order to determine whether nitration efficiency varied with concentration and to determine whether nitration catalysis was maintained with multiple additions (see FIG. 6 inset). Nitration efficiency was defined as the amount of nitropeptide formed per amount of peroxynitrite added and was calculated for each peroxynitrite addition; the values shown are the average of all nine peroxynitrite additions. The absorbance changes associated with nitrotyrosine peptide production were monitored simultaneously at 380, 430, and 460 nm. The extinction coefficients for nitrated GYA at pH 7.4 are 4,400 M^−1cm^−1 at 430 nm and 2,200 M^−1cm^−1 at both 380 and 460 nm. […] Wavelengths used to quantify nitrotyrosine production were chosen to minimize interference by the particular metalloporphyrin used. Experiments using HPA as a nitration target (FIG. 7) contained 8 mM HPA in either 0.1 M potassium phosphate, pH 7.4 or 0.1 M sodium borate, pH 9.1.
The relative abilities of several MPs to enhance nitration of the tripeptide GYA was compared using 10 μM MP and sequential bolus additions of 50 μM (×3), 100 μM (×3), and 200 μM (×3)peroxynitrite (FIG. 6, inset).

[4] = MP-catalyzed nitration of HPA: effect of pH, reductants and serum; format: biochemical; settings: for enhancement of nitration yield at pH 9.1 / effect of ascorbate on nitration enhancement: 8 mM HPA, 10 μM MP; for enhancement of nitration yield at pH 9.1: 0.1 M sodium borate pH 9.1, versus non-catalyzed; for effect of ascorbate and GSH on nitration enhancement: concentrations which eliminated non-catalyzed nitration; for effect of serum on nitration enhancement: fresh human serum 1:10 added prior to peroxynitrite; for effect of ascorbate on nitration enhancement: ascorbate 150 μM, pH 7.4
Protocol: Single additions of 100 μM peroxynitrite were made to reactions containing ascorbate or GSH. Three sequential additions of 100 μM peroxynitrite were made to all other reactions.
as §2, with “This” for “For nitration of GYA peptide (see FIG. 6), reaction solutions contained 2 mM GYA and 10 μM of the indicated MP in 1.4 ml of 0.1 M potassium phosphate, pH 7.4 at 37° C. Comparisons with two previously characterized nitration catalysts, human Cu,Zn superoxide dismutase (hCu,Zn SOD) and carbon dioxide, were made using 10 μM of SOD subunit and 25 mM potassium bicarbonate, respectively, which was pH-adjusted to 7.4. This”

[5] = Oxidation of metalloporphyrins by peroxynitrite, stopped-flow spectroscopy; format: biochemical; settings: 37° C., 0.1 M potassium phosphate pH 7.4, pseudo-first order, ± standard error
Protocol: Peroxynitrite (in 10 mM NaOH) was rapidly mixed with the indicated MPs in 0.1 M potassium phosphate, pH 7.4 at 37° C. using a stopped-flow apparatus as described in Methods. […] A final concentration of 40 μM peroxynitrite was added to 8 μM of each of the MPs MnTBAP, MnPPIX, and FePPIX. […] INSET: Apparent rate constants for oxidation of 8 μM MnTBAP are plotted as a function of peroxynitrite concentration to illustrate how the rate constants listed in Table III were determined.
Rates of metal loporphyrin oxidation by peroxynitrite were determined using a Bio Sequential SX-18MV Applied Photophysics stopped-flow spectrofluorometer. Solutions of metalloporphyrins in 0.1 M potassium phosphate buffer, pH 7.4 were placed in one syringe and solutions of peroxynitrite in 10 mM NaOH were placed in a second syringe, both of which were submerged in a water bath at 37° C. Changes in metalloporphyrin absorbance as a function of time were recorded following triggering of syringe firing and solution mixing (instrument dead time=2 msec); a total of 1000 data points were collected over intervals ranging from 50 msec to 3 sec. […] Because the absorbance changes associated with loss of +3 forms were greater, rates of metalloporphyrin oxidation were determined by monitoring the disappearance of Mn(III)TMPyP at 462 nm, Mn(III)TBAP at 468 nm, Mn(III)PPIX at 466 nm, and Fe(III)PPIX at 464 nm. Absorbance changes as a function of time were fitted to the equation describing a first order process. The concentration of peroxynitrite was varied from five-fold to forty-fold greater than the fixed metalloporphyrin concentration in order to obtained pseudo first-order conditions (see Table III). Each concentration was injected 10 times and data were averaged automatically prior to fitting.
Rate constants for stoichiometric metalloporphyrin oxidation by peroxynitrite at 37° C. were determined under pseudo-first order reaction conditions by varying the amount of peroxynitrite added to a fixed concentration of metalloporphyrin (Table III).
In Table III, the rate of peroxynitrite-mediated oxidation of metalloporphyrins at 37° C. was determined. Apparent rate constants were determined by stopped-flow spectroscopy and plotted versus the peroxynitrite concentration (as shown for MnTBAP in FIG. 4 inset) to determine the bimolecular rate constant in M^−1s^−1±standard error. FePPIX was monitored at 387 nm, MnPPIX at 464 nm, and MnTBAP at 470 nm.

[6] = MP-catalyzed peroxynitrite decomposition monitored at 302 nm; format: biochemical; settings: 100 μM peroxynitrite
Protocol: Peroxynitrite (100 μM) was added to rapidly stirred cuvettes at 37° C. containing the indicated concentrations of MPs in 0.1 M potassium phosphate, pH 7.4. Ascorbate was added to 150 μM where indicated. Peroxynitrite decomposition was monitored at 302 nm using a Hewlett-Packard diode-array spectrophotometer. Apparent rates (kapparents^−1, average of n=3) were plotted versus MP concentration to determine rate constants in M^−1s^−1.
Reactions contained the indicated concentration of FeTCPPin 1.4 ml of 0.1 M potassium phosphate, pH 7.4 in the absence or presence to 150 μM ascorbic acid. Peroxynitrite (100 μM) was added to rapidly stirred cuvettes at 37° C. and the decay of peroxynitrite was monitored continuously at 302 nm. Decay data were fitted to the equation describing first order decay to obtain apparent decay rates (kapparent sec^−1). Apparent decay rates as a function of FeTCPP were fitted by linear regression and the rate constant was obtained slope of the line.
Peroxynitrite (100 μM) decomposition was determined at 302 nm using a Hewlett-Packard diode-array spectrophotometer fitted with a temperature-controlled cuvette chamber and a water-driven cuvette stirrer. Bolus additions of peroxynitrite were made to vigorously stirred cuvettes containing varying concentrations of MPs (see Table III) while data were collected at a rate of ten points/sec. […] Each reaction was repeated three times and only the first additions of peroxynitrite were averaged. Data were exported for fitting and plotting. Apparent rates of peroxynitrite decomposition were plotted as a function of metalloporphyrin concentration (as shown in FIG. 5) to determine concentration-independent rate constants at 37° C.
Rates of peroxynitrite (100 μM) decomposition were determined at different MP concentrations. Ascorbate was added to 150 μM where indicated. […] Apparent rate constants were plotted versus MP concentration (as in FIG. 5A,B) to determine true rate constants in M^−1s^−1±standard error.

Structure (SMILES) | rate of GSH oxidation [1] [µM/min] | Rate of Ascorbate Oxidation [2] [µM/min] | effect on nitration [3] | enhancement of nitration yield at pH 9.1 [4] | effect of ascorbate and GSH on nitration enhancement [4] | effect of serum on nitration enhancement [4] | Rate Constants for Oxidation of MPs by Peroxynitrite [5] [M⁻¹ s⁻¹] | Rate Constants for MP-Catalyzed Decomposition of Peroxynitrite (pH 7.4, 37° C.) ([6]; absence of added reductants) | ascorbate concentration giving complete inhibition of nitration enhancement ([4]; dose-dependent, not shown) [mM] | effect of HOCl on the MP (50 μM HOCl) | oxidation by H2O2 (0.5 mM H2O2, 20 min) | effect of ascorbate on nitration enhancement [4] | Rate Constants for MP-Catalyzed Decomposition of Peroxynitrite (pH 7.4, 37° C.) ([6]; plus ascorbate 150 μM)
C[n+]1ccc(-c2c3nc(c(-c4cc[n+](C)cc4)c4ccc([n-]4)c(-c4cc[n+](C)cc4)c4nc(c(-c5cc[n+](C)cc5)c5ccc2[n-]5)C=C4)C=C3)cc1.Cc1ccc(S(=O)(=O)[O-])cc1.Cc1ccc(S(=O)(=O)[O-])cc1.Cc1ccc(S(=O)(=O)[O-])cc1.Cc1ccc(S(=O)(=O)[O-])cc1.[Cu+2] [CuTMPyP, Copper (II) meso-tetra-(N-methyl-4-pyridyl)-porphine tetra tosylate] | 29 | 6.50 ± 0.32 | small but reproducible inhibitory effect | – | – | – | – | – | – | – | – | – | –
C=CC1=C(C)c2cc3[n-]c(cc4nc(cc5[n-]c(cc1n2)c(C)c5CCC(=O)O)C(CCC(=O)O)=C4C)c(C)c3C=C.[Fe] [FePPIX, Iron (III) protoporphyrin IX dichloride] | – | 1.33 ± 0.07 | – | 5.7 fold | much less inhibitory effect | largely eliminated the nitration enhancement | 1e+06 | 3.7×10^5 M^−1s^−1 and 3.7 × 10^5 ± 0.2 M^−1s^−1 | – | – | – | – | –
C[n+]1ccc(-c2c3nc(c(-c4cc[n+](C)cc4)c4ccc([n-]4)c(-c4cc[n+](C)cc4)c4nc(c(-c5cc[n+](C)cc5)c5ccc2[n-]5)C=C4)C=C3)cc1.[Cl-].[Cl-].[Cl-].[Cl-].[Cl-].[Fe+3] [FeTMPyP, Iron (III) meso-tetra-(N-methyl-4-pyridyl)-porphine chloride] | 22 | 146.20 ± 7.2 | – | 10.7 fold | much less inhibitory effect | much less effect | – | 7.9 × 10^5 ± 0.9 M^−1s^−1 | 1.5 | appeared to destroy the metal-pyrrole center | did not appear to oxidize | – | –
C=CC1=C(C)c2cc3[n-]c(cc4[n-]c(cc5nc(cc1n2)C(C)=C5C=C)c(C)c4CCC(=O)[O-])c(CCC(=O)[O-])c3C.[H+].[H+].[Mn+2] [MnPPIX, Manganese (III) protoporphyrin IX dichloride] | – | 0.96 ± 0.05 | – | did not enhance nitration yields | largely prevented the enhancement of nitration | largely eliminated the nitration enhancement | 99000 | – | – | – | – | pronounced inhibitory effect | –
O=C(O)c1ccc(-c2c3nc(c(-c4ccc(C(=O)O)cc4)c4ccc([n-]4)c(-c4ccc(C(=O)O)cc4)c4nc(c(-c5ccc(C(=O)O)cc5)c5ccc2[n-]5)C=C4)C=C3)cc1.[Mn+3] [MnTBAP, Manganese (III) tetra-(4-benzoic acid)-porphyrin] | – | – | – | did not enhance nitration yields | largely prevented the enhancement of nitration | largely eliminated the nitration enhancement | 25000 | no acceleration | – | – | – | pronounced inhibitory effect | 3.3 × 10^4 ± 0.4 M^−1s^−1
